One series relates to souris. As to conditions: mouse, in vivo, po, 11520 min. An excerpt:
On a évalué les doses létales DLO des différents composés testés après administration par voie orale chez la souris.
On appelle DLO la dose maximale ne provoquant aucune mortalité en 8 jours.

Series [1] has as its system oédème plantaire provoqué par la carraghénine chez le rat. Kind of series: Anti-inflammatory activity: carrageenan-induced plantar oedema. In kind it is in vivo. As to conditions: dose 0,4 mg/kg oral, given simultaneously with carrageenan; rat paw volume versus controls. The text has this: L'activité anti-inflammatoire a été déterminée sur le test de l'oédème plantaire provoqué par la carraghénine chez le rat.
On administre, à des rats mâles pesant de 130 à 150 g, 0,05 cm3 d'une suspension stérile à 1% de carraghénine dans l'articulation tibio-tarsienne d'une patte postérieure.
Simultanément, on administre le produit à étudier dans une suspension de carboxyméthylcellulose à 0,25% et de Tween à 0,02% par voie orale.
Le volume de la patte est mesuré avant l'administration, puis 2 heures, 4 heures, 6 heures, 8 heures et 24 heures après.
L'intensité de l'inflammation est maxima 4 à 6 heures après l'injection de carraghénine. La différence du volume des pattes des animaux traités et des témoins met en évidence l'action anti inflammatoire du médicament.
In general terms: The carrageenan paw model is a standard test of acute inflammation.

The test system of series [2] is rats mâles Sprague-Dawley. Kind of series: Anti-ulcer activity: Shay method modified by Guth (pylorus ligation plus aspirin/HCl gastric lesions). In kind it is in vivo. As to conditions: dose 0,4 mg/kg per os one hour before pylorus ligation; aspirin 200 mg/kg per os; Sprague-Dawley rat; mean ulcer score. As for the experimental part:
L'essai est effectué selon la méthode de Shay modifiée par GUTH (GUTH, P.H. et coll, Topical aspirin plus HCl gastric lesions in the rat. Gastroenterology 1979,76, 88-93.) Des rats mâles Sprague-Dawley d'un poids voisin de 250 g, à jeun depuis 48 heures sauf boisson, ont été utilisés. On pratique sous légère anesthésie à l'halothane, la ligature du pylore et une . heure plus tard, on administre l'aspirine per os à la dose de 200 mg/kg, en suspension dans la carboxyméthylcellulose à 0,25% renfermant 15% d'acide chlorhydrique N. Deux heures plus tard, on sacrifie les animaux, prélève et examine les estomacs. Chaque lésion ulcéreuse est cotée de la façon suivante :
La somme des cotations est calculée pour chaque estomac, et le score moyen est établi.pour chaque lot.
Les substances à étudier sont administrées per os une heure avant la ligature.

Results on 5 compounds are retold here after EP0099766A1, “1-3-Dihydro 4-(1-hydroxy-2-amino-ethyl)-2H-indol-2-one derivatives, their salts, process for their preparation, their use as medicines and compositions containing them” (ROUSSEL-UCLAF, priority 1982, dated 1984).

Each structure is given as a SMILES string. A value given as a limit tells only on which side of the number the result lay.

For `CNCC(O)c1cccc2c1CC(=O)N2` (stereo not shown) [compound 3, 1,3-dihydro 4-(1-hydroxy 2-(méthylamino)éthyl) 2H-indol-2-one], the DL0 in the series on souris was more than 400 mg/kg.
The same measure, in the same setting: for `CCNCC(O)c1cccc2c1CC(=O)N2` (stereo not shown) [compound 7, Chlorhydratede 1,3-dugtdri 4-/(1-hydroxy 2-éthyl-amino) éthyl/ 2H-indol-2-one] the value was more than 400 mg/kg.
On to `CC(C)NCC(O)c1cccc2c1CC(=O)N2` (stereo not shown) [exemple 1, 1,3-dihydro 4-/2-(1-méthyléthylamino) 1-hydroxy éthyl/ 2H-indol-2-one], for which the “protège les animaux traités (activité anti-inflammatoire)” value in series [1] is on record as 61%. This compound also had a DL0 with souris of 200 mg/kg.
Consider `CCCNCC(O)c1cccc2c1CC(=O)N2` (stereo not shown) [exemple 2, 1,3-dihydro 4-/1-hydroxy 2-(propylamino)éthyl/ 2H-indol-2-one], for which the “protège les animaux traités (activité antiulcéreuse)” value in series [2] stood at 60%. In the series with souris, this compound registered a DL0 of 200 mg/kg.
Take `O=C1Cc2c(cccc2C(O)CNCC2CC2)N1` (stereo not shown) [exemple 5, Chlorhydratede 1,3-dihydro 4-/1-hydroxy 2-(cyclo-propylméthylamino) éthyl/ 2H-indol-2-one]: the DL0 with souris is listed as 200 mg/kg.
